Literature values as cited in US6680321B1, “Compounds with analgesic effect” (AstraZeneca Canada, Inc., priority 1995, dated 2004).

Columns and labels:
[1] = in vivo
μ receptor = μ receptor (Homo sapiens, UniProt P35372)
δ receptor = δ receptor (Homo sapiens, UniProt P41143)
Sequence of δ receptor (P41143 whole entry): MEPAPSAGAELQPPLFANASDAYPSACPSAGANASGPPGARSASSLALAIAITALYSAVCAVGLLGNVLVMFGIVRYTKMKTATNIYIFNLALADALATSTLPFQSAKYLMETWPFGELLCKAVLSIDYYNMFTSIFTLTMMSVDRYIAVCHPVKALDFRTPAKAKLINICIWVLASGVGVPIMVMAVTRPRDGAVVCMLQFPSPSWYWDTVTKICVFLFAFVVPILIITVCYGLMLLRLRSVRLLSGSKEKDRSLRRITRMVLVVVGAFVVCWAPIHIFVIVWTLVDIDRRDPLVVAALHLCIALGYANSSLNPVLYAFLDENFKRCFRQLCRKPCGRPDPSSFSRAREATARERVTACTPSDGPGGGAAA

Sequence of μ receptor (P35372 whole entry): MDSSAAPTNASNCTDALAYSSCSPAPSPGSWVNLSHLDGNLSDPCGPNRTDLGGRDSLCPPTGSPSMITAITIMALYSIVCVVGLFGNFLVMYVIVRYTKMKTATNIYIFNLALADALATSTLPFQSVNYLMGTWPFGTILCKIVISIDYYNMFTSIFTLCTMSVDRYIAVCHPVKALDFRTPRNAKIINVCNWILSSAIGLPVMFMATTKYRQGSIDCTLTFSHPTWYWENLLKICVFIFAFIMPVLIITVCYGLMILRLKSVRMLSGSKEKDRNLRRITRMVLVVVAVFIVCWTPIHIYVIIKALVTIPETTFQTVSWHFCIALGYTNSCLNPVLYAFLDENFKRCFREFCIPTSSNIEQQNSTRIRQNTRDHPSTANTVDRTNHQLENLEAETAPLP

Row | SMILES | analgesic activity [1] | affinity for the μ receptor (μ receptor) | selectivity for the δ receptor vs μ′ receptor binding (δ receptor) [fold]
1 | C=CCN1C[C@H](C)N([C@H](c2ccc(C(=O)N(CC)CC)cc2)c2cccc(O)c2)C[C@H]1C [BW 373U86] | with analgesic activity | significant affinity | 
2 | Oc1ccc2c3c1O[C@H]1c4[nH]c5ccccc5c4C[C@@]4(O)[C@@H](C2)N(CC2CC2)CC[C@]314 [naltrindole] | no analgesic activity |  | < 10
